Measured values taken from patent US20230219965A1 (KSQ Therapeutics, Inc., priority 2020, published 2023).
Where two headings read alike, the source gives them in different places.

Experiments:
[1] = biological target: USP1/UAF1 enzyme (Homo sapiens, UniProt O94782); assay: USP1/UAF1 deubiquitination assay (ubiquitin-rhodamine 110 substrate); assay type: biochemical; settings: read-out: USP1 IC50 (Ub-Rho)
Summary of the method: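 Cleavage of 150 nM ubiquitin-rhodamine 110 by 0.05 nM USP1/UAF1 was followed as fluorescence (Ex480/Em540, kinetic, 30 min) in Tris-HCl pH 7.8 buffer with EDTA, BSA, DTT and Tween-20. Compounds, top 10 μM, were preincubated with enzyme 10 min; % inhibition against no-enzyme and DMSO wells gave four-parameter IC50s.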

[2] = ADME solubility determination in PBS at pH 2.0 and pH 7.4; assay type: physicochemical; settings: phosphate buffered saline, 25 °C, thermodynamic from solid
Protocol: Certain Compounds of the Disclosure were assessed for ADME solubility at pH 2.0 and pH 7.4.
Stock solutions were prepared by adding each compound to DMSO at a concentration of 10 mM. Samples were prepared by adding 50 μL of each stock solution to separate vials. The vials were loaded onto a 96-well rack and dried. 500 μL of Phosphate Buffered Saline (PBS) pH 7.4 or PBS pH 2.0 were added into each vial. The vials were then shaken at 25° C. and 1,100 rpm for 24 hours.
After 24 hours, the vials were centrifuged at 3220 G and 25° C. for 30 minutes. The supernatant fluid was analyzed by LC-MS/MS against a standard of known concentration. The solubility of each sample was then calculated using the equation below: […]
where DF is the dilution factor.

[3] = Liver microsomal metabolic stability, rat liver microsomes (RLM); settings: rat, liver microsomes, t1/2 (min) in RLM, 1 μM compound, 1 mg/mL microsomes, NADPH
Protocol: Samples were prepared by adding 222.5 μL of a master solution (100 mM phosphate buffer and 1 mg/mL liver microsomes (HLM or RLM)) and 25 μL of a 10 mM NADPH solution to incubation plates, which were then warmed for 10 min. Each compound was separately dissolved in DMSO to prepare 10 mM stock solutions, which were then diluted to 100 μM with acetonitrile. A reaction was started by adding 2.5 μL of the 100 μM solution of each compound to separate incubation plates such that the final concentration of for each compound in each plate was 1 μM.
25 μL aliquots of each sample were taken at 0.5, 5, 10, 15, 20 and 30 minutes, and the reaction was stopped by adding 5 volumes of cold acetonitrile with IS (100 nM alprazolam, 200 nM caffeine and 100 nM tolbutamide). The samples were then centrifuged at 3,220 G for 30 minutes, and 100 μL of the supernatant fluid was mixed with 100 μL of ultra-pure H2O.
The samples were then analyzed by LC-MS/MS. Peak areas were determined from extracted ion chromatograms. Slope values (k) were determined by linear regression of the natural logarithm of the remaining percentage of the compound vs. incubation time curve. The in vitro half-life (in vitro t1/2) was determined from the slope value using the following equation:

[4] = Liver microsomal metabolic stability, human liver microsomes (HLM); settings: human, liver microsomes
[5] = pH 2, aqueous buffer, PBS pH 2.0, 25° C., read-out: Solubility at pH 2.0
[6] = pH 7.4, aqueous buffer, PBS pH 7.4, 25° C., read-out: Solubility at pH 7.4

Chain of USP1/UAF1 enzyme (O94782 whole entry): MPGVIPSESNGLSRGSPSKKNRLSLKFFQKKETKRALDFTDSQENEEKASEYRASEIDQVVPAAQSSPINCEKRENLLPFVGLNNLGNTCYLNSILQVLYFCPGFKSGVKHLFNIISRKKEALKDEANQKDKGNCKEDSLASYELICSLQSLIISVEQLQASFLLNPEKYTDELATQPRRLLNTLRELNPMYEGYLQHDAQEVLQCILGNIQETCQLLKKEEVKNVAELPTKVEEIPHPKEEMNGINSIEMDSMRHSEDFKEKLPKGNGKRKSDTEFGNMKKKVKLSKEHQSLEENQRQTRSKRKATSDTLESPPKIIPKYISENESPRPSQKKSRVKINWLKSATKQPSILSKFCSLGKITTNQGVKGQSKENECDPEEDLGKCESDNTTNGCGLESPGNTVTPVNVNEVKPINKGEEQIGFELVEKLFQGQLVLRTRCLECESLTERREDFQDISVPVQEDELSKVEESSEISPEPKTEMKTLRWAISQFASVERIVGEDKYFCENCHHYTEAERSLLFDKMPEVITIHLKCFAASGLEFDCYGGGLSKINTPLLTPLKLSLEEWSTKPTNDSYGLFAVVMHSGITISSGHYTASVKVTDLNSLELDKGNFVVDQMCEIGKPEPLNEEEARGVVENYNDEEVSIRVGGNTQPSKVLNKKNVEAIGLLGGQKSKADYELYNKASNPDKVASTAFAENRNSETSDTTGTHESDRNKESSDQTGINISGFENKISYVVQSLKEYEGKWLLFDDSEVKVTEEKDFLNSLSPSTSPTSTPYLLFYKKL
Chain of USP1/UAF1 enzyme (Q8TAF3 whole entry partner): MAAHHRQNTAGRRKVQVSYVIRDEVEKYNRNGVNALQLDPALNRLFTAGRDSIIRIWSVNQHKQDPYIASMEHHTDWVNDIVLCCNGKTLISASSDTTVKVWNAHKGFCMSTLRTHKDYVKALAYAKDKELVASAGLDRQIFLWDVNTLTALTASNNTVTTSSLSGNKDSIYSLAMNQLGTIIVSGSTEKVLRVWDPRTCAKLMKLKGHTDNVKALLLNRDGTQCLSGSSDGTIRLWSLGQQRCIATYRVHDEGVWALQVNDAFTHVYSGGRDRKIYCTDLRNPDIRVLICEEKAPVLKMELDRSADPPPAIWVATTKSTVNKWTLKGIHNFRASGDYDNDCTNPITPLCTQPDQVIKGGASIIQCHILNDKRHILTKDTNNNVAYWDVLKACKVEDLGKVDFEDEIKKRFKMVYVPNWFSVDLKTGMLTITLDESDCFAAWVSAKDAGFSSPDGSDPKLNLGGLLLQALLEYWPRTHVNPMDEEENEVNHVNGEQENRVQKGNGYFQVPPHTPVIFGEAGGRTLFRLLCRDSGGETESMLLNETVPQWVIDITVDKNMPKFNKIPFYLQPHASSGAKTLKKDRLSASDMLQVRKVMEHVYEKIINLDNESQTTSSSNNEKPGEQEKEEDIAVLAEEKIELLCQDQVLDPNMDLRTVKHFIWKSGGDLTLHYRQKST

SMILES	IC50 [1]	solubility at 24 h [2, 5]	solubility at 24 h [2, 6]	half-life at 1 μM [3]	half-life at 1 μM [4]
COc1ncnc(C2CC2)c1-c1cc2n(n1)CCC(=O)N2Cc1ccc(-n2nc(C#N)cc2OC)c(F)c1 [Example 8, (4-((2-(4-cyclopropyl-6-methoxypyrimidin-5-yl)-5-oxo-6,7-dihydropyrazolo[1,5-a]pyrimidin-4(5H)-yl)methyl)-2-fluorophenyl)-5-methoxy-1H-pyrazole-3-carbonitrile]	100 to 500 nM	≥ 10 µM	< 10 µM	> 25 min	> 25 min
COc1ccnc(C(C)C)c1-c1cc2n(n1)CCC(=O)N2Cc1ccc(-c2nc(C(F)(F)F)cn2C)cc1 [Example 13, 2-(2-isopropyl-4-methoxypyridin-3-yl)-4-(4-(1-methyl-4-(trifluoromethyl)-1H-imidazol-2-yl)benzyl)-6,7-dihydropyrazolo[1,5-a]pyrimidin-5(4H)-one]	100 to 500 nM	≥ 10 µM	≥ 10 µM	< 25 min	< 25 min
Cn1cc(C(F)(F)F)nc1-c1ccc(CN2C(=O)CCn3nc(-c4c(Cl)cnn4C4CCC4)cc32)cc1F [Example 19, 2-(4-chloro-1-cyclobutyl-1H-pyrazol-5-yl)-4-(3-fluoro-4-(1-methyl-4-(trifluoromethyl)-1H-imidazol-2-yl)benzyl)-6,7-dihydropyrazolo[1,5-a]pyrimidin-5(4H)-one]	< 100 nM	< 10 µM	< 10 µM	< 25 min	< 25 min
Cc1cnn(C(C)C)c1-c1cc2n(n1)CC(C)C(=O)N2Cc1ccc(-c2nc(C(F)(F)F)cn2C)cc1 (stereo not drawn) [Example 31, 2-(1-isopropyl-4-methyl-1H-pyrazol-5-yl)-6-methyl-4-(4-(1-methyl-4-(trifluoromethyl)-1H-imidazol-2-yl)benzyl)-6,7-dihydropyrazolo[1,5-α]pyrimidin-5(4H)-one]	100 to 500 nM	≥ 10 µM	< 10 µM	< 25 min	< 25 min
COc1ncnc(C2CC2)c1-c1cc2n(n1)CC(C)C(=O)N2Cc1ccc(-c2nc(C(F)(F)F)cn2C)cc1 (stereo not shown) [Example 32]	< 100 nM	≥ 10 µM	< 10 µM	> 25 min	> 25 min
Cc1cnn(C(C)C)c1-c1nn2c(c1Cl)N(Cc1ccc(-c3nc(C(F)(F)F)cn3C)cc1)C(=O)CC2 [Example 34]	100 to 500 nM	< 10 µM	< 10 µM	< 25 min	< 25 min
Cc1cnn(C(C)C)c1-c1cc2n(n1)C(C)CC(=O)N2Cc1ccc(-c2nc(C(F)(F)F)cn2C)cc1 (stereo not drawn) [Example 36, 2-(1-isopropyl-4-methyl-1H-pyrazol-5-yl)-7-methyl-4-(4-(1-methyl-4-(trifluoromethyl)-1H-imidazol-2-yl)benzyl)-6,7-dihydropyrazolo[1,5-α]pyrimidin-5(4H)-one]	< 100 nM	≥ 10 µM	≥ 10 µM	< 25 min	< 25 min
Cc1cnn(C(C)C)c1-c1cc2n(n1)CCCN2Cc1ccc(-n2nc(C(F)(F)F)cc2C)cc1 [Example 52, 2-(1-isopropyl-4-methyl-1H-pyrazol-5-yl)-4-(4-(5-methyl-3-(trifluoromethyl)-1H-pyrazol-1-yl)benzyl)-4,5,6,7-tetrahydropyrazolo[1,5-α]pyrimidine]	< 100 nM	< 10 µM	< 10 µM	< 25 min	< 25 min
Cc1cnn(C(C)C)c1-c1cc2n(n1)CCCN2Cc1ccc(-n2nc(C(F)(F)F)cc2C)c(F)c1 [Example 56]	< 100 nM	< 10 µM	< 10 µM	< 25 min	< 25 min
CCn1cc(C(F)(F)F)nc1-c1ccc(CN2CCCn3nc(-c4c(Cl)cnn4C(C)C)cc32)cc1F [Example 60]	< 100 nM	< 10 µM	< 10 µM	< 25 min	< 25 min
CCn1cc(C(F)(F)F)nc1-c1ccc(CN2C(=O)CCn3nc(-c4c(Cl)cnn4C(C)C)cc32)cc1F [Example 77, 2-(4-chloro-1-isopropyl-1H-pyrazol-5-yl)-4-(4-(1-ethyl-4-(trifluoromethyl)-1H-imidazol-2-yl)-3-fluorobenzyl)-6,7-dihydropyrazolo[1,5-α]pyrimidin-5(4H)-one]	< 100 nM	< 10 µM	< 10 µM	< 25 min	> 25 min
Cc1cn(C)nc1-c1ccc(CN2C(=O)CCn3nc(-c4c(Cl)cnn4C(C)C)cc32)cc1 [Example 93]	< 100 nM	< 10 µM	< 10 µM	< 25 min	< 25 min
COCc1cc(C(F)(F)F)nn1-c1ccc(CN2C(=O)CCn3nc(-c4c(Cl)cnn4C(C)C)cc32)cc1 [Example 100]	< 100 nM	< 10 µM	< 10 µM	< 25 min	< 25 min
COc1cc(C#N)nn1-c1ccc(CN2C(=O)CCn3nc(-c4c(Cl)cnn4C(C)C)cc32)cc1 [Example 106]	< 100 nM	< 10 µM	< 10 µM	> 25 min	> 25 min
CC(C)n1cc([N+](=O)[O-])nc1-c1ccc(CN2C(=O)CCn3nc(-c4c(Cl)cnn4C(C)C)cc32)cc1 [Example 112]	< 100 nM	< 10 µM	< 10 µM	< 25 min	> 25 min
COc1cc([C@H](C)N2C(=O)CCn3nc(-c4c(OC)ncnc4C4CC4)cc32)ccc1-c1nc(C(F)(F)F)cn1C(C)C [Example 128]	100 to 500 nM	≥ 10 µM	< 10 µM	< 25 min	< 25 min
CC(C)n1ncc(Cl)c1-c1cc2n(n1)CCC(=O)N2Cc1ccc(-c2cn(C)c(C(F)(F)F)n2)c(F)c1 [Example 130]	100 to 500 nM	< 10 µM	< 10 µM	> 25 min	> 25 min
CCn1cc(C(F)(F)F)nc1-c1ccc(CN2C(=O)CCn3nc(-c4c(Cl)cnn4C4COC4)cc32)cc1 [Example 154, 2-(4-chloro-1-(oxetan-3-yl)-1H-pyrazol-5-yl)-4-(4-(1-ethyl-4-(trifluoromethyl)-1H-imidazol-2-yl)benzyl)-6,7-dihydropyrazolo[1,5-α]pyrimidin-5(4H)-one]	< 100 nM	< 10 µM	< 10 µM	> 25 min	> 25 min
CCn1cc(C(F)(F)F)nc1-c1ccc(CN2C(=O)CCn3nc(-c4c(C#N)cnn4C(C)C)cc32)cc1 [Example 156]	< 100 nM	< 10 µM	< 10 µM	> 25 min	> 25 min
CCn1cc(C(F)(F)F)nc1-c1ccc([C@H](C)N2C(=O)CCn3nc(-c4c(Cl)cnn4C(C)C)nc32)cc1OC [Example 179]	100 to 500 nM	≥ 10 µM	< 10 µM	< 25 min	< 25 min
CCn1cc(C(F)(F)F)nc1-c1c(F)cc(CN2C(=O)CCn3nc(-c4c(Cl)cnn4C(C)C)nc32)cc1OC [Example 187]	100 to 500 nM	< 10 µM	< 10 µM	< 25 min	> 25 min
COc1cc(-c2nc(C(F)(F)F)cn2C(C)C)c(F)cc1CN1C(=O)CCn2nc(-c3c(OC)ncnc3C3CC3)nc21 [Example 202]	< 100 nM	< 10 µM	< 10 µM	> 25 min	> 25 min
COc1ncnc(C2CC2)c1-c1nc2n(n1)CCC(=O)N2[C@@H](C)c1ccc(-c2nc(C(F)(F)F)c(Br)n2C)cc1 [Example 205]	< 100 nM	< 10 µM	≥ 10 µM	> 25 min	< 25 min
COc1ccnc(C2CC2)c1-c1nc2n(n1)CCC(=O)N2Cc1ccc(-c2nc(C(F)(F)F)cn2C(C)C)c(F)c1 [Example 207]	100 to 500 nM	≥ 10 µM	< 10 µM	> 25 min	< 25 min
CCn1cc(C(F)(F)F)nc1-c1ccc([C@@H](C)N2C(=O)CCn3nc(-c4c(OC(F)F)ncnc4C4CC4)nc32)cc1 [Example 208]	< 100 nM	≥ 10 µM	≥ 10 µM	< 25 min	> 25 min
CCn1cc(C(F)(F)F)nc1-c1ccc([C@H](C)N2C(=O)CCn3nc(-c4c(OC(F)F)ncnc4C4CC4)nc32)cc1 [Example 209]	< 100 nM	≥ 10 µM	< 10 µM	< 25 min	< 25 min
